In ChEMBL document CHEMBL1124225, “2,3-Diarylindenes and 2,3-diarylindenones: synthesis, molecular structure, photochemistry, estrogen receptor binding affinity, and comparisons with related triarylethylenes” (J Med Chem, 1988):

What follows are compounds tested against Estrogen receptor (Rattus norvegicus) (UniProt P06211+Q62986) (assay: Binding affinity for rat uterine estrogen receptor relative to estradiol).
Assay type: protein assay

Row | SMILES | RBA [%]
1 | Oc1ccc2c(c1)Cc1c-2c2ccccc2c2ccccc12 | 0.01
2 | Oc1ccc2c(c1)CC(c1ccccc1)=C2c1ccccc1 | 8.9
3 | O=C1C(c2ccccc2)=C(c2ccccc2)c2ccc(O)cc21 | 59

Now from value to compound:

Row | RBA [%] | SMILES
4 | 23 | O=C1C(c2ccc(O)cc2)=C(c2ccc(O)cc2)c2ccc(O)cc21
5 | 140 | Oc1ccc(C2=C(c3ccc(O)cc3)c3ccc(O)cc3CC2)cc1
6 | 15 | Oc1ccc(C2=C(c3ccc(O)cc3)c3ccc(O)cc3C2)cc1
